Laboratory results as given in US9985214B2, “Monoamine compound, charge transport material, composition for charge transport film, organic electroluminescent element, organic EL display, and organic EL lighting” (Mitsubishi Chemical Corporation, priority 2009, dated 2018).

Key:
Type in all cases: physicochemical
[1] = Measurement of solubility in m-xylene; parameters: key: +: The compound dissolved.; −: The compound remained undissolved, giving a suspension, or separated out as crystals in 12 hours
Text: <Measurement of Solubility in m-Xylene>
The compound I synthesized in [Synthesis of Compound I] above and the comparative compounds X-A and X-B represented by the following structural formulae were examined for solubility in m-xylene.

[2] = Glass transition temperature of the compound
[3] = Dissolution of the compound in the composition for luminescent-layer formation / production of element; settings: same procedure as Example 2, cyclohexylbenzene as solvent; production of an element was impossible
Method: Next, a composition for luminescent-layer formation which included compound C3 represented by the following formula and the compound II obtained in Synthesis Example as charge-transporting compounds, phosphorescent metal complex D2, and cyclohexylbenzene as a solvent was prepared. The concentrations of the compound C3, the compound II, and the phosphorescent metal complex D2 in the composition were 1.25% by mass, 3.75% by mass, and 0.7% by mass, respectively.
The same procedure as in Example 2 was conducted, except that the compound X-C was used in place of the compound II.

Solubility in m-xylene, Concentration 1.0 mass % [1]	Solubility in m-xylene, Concentration 5.0 mass % [1]	Solubility in m-xylene, Concentration 10 mass % [1]	Glass transition temperature [2] [°C]	behaviour of the compound after dissolution in the composition for luminescent-layer formation [3]	SMILES
−	−	−	120		c1ccc(-c2cccc(-c3ccc(N(c4ccc(-c5cccc(-n6c7ccccc7c7ccccc76)c5)cc4)c4ccc(-c5cccc(-n6c7ccccc7c7ccccc76)c5)cc4)cc3)c2)cc1 [X-B]
+	+	+	127		c1ccc(-c2cccc(-c3ccc(N(c4ccc(-c5cccc(-c6cccc(-n7c8ccccc8c8ccccc87)c6)c5)cc4)c4ccc(-c5cccc(-n6c7ccccc7c7ccccc76)c5)cc4)cc3)c2)cc1 [Compound I]
				crystallized after dissolved	c1ccc(-c2ccc(-c3ccc(N(c4ccc(-c5cccc(-c6cccc7ccccc67)c5)cc4)c4ccc(-c5cccc(-n6c7ccccc7c7ccccc76)c5)cc4)cc3)cc2)cc1 [Compound X-C]
+	−	−	159		c1cc(-c2ccc(N(c3ccc(-c4cccc(-n5c6ccccc6c6ccccc65)c4)cc3)c3ccc(-c4cccc(-n5c6ccccc6c6ccccc65)c4)cc3)cc2)cc(-n2c3ccccc3c3ccccc32)c1 [X-A]
